Legend:
Assay type in all cases: in vivo
Conditions in all cases: foliar, compared to untreated control leaf disks, read-out: disease control
Pyrenophora teres = Pyrenophora teres / barley / leaf disc preventative (net blotch)
Description: Pyrenophora teres/Barley/Leaf Disc Preventative (Net Blotch) Barley leaf segments cv. Hasso were placed on agar in a multiwell plate (24-well format) and sprayed with the formulated test compound diluted in water. The leaf segments were inoculated with a spore suspension of the fungus 2 days after application.

[1] = system: Puccinia recondita f. sp. tritici; assay: Puccinia recondita f. sp. tritici / wheat / leaf disc curative (brown rust)
Description: Puccinia recondita f. sp. tritici/Wheat/Leaf Disc Curative (Brown Rust) Wheat leaf segments cv. Kanzler are placed on agar in multiwell plates (24-well format). The leaf segments are inoculated with a spore suspension of the fungus. Plates were stored in darkness at 19° C. and 75% rh. The formulated test compound diluted in water was applied 1 day after inoculation.

[2] = system: Blumeria graminis f. sp. tritici (Erysiphe graminis f. sp. tritici); assay: Blumeria graminis f. sp. tritici / wheat / leaf disc preventative (powdery mildew on wheat)
Procedure, shortened: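 Wheat leaf segments (cv. Kanzler) on agar were sprayed with formulated compound in water, inoculated with powdery mildew 1 day later, and kept at 20° C, 60% rh (24 h dark, then 12 h light/12 h dark). Percent disease control versus untreated scored 6-8 days after application; tested at 200 ppm.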

[3] = system: Puccinia recondita f. sp. tritici; assay: Puccinia recondita f. sp. tritici / wheat / leaf disc preventative (brown rust)
Description: Puccinia recondita f. sp. tritici/Wheat/Leaf Disc Preventative (Brown Rust) Wheat leaf segments cv. Kanzler were placed on agar in multiwell plates (24-well format) and sprayed with the formulated test compound diluted in water. The leaf disks were inoculated with a spore suspension of the fungus 1 day after application.

Measured: pest or weed control at 200 ppm

CCN(C)/C=N/c1cc(Br)c(OC2CCc3ccccc3C2)nc1C (stereo not drawn) [Q.110]
≥ 50%: Pyrenophora teres | [1] | [2] | [3]

CCN(C)/C=N/c1cc(Br)c(OCc2ccns2)nc1C [Q.143]
≥ 50%: Pyrenophora teres | [1] | [2] | [3]

CCN(C)/C=N/c1ccc(OC(C)c2cc(C)cc(C)c2)nc1C (stereo not drawn) [Q.358]
≥ 50%: Pyrenophora teres | [1] | [2] | [3]

CCN(C)/C=N/c1cc(Br)c(OCC(C)c2ccccc2)nc1C (stereo not drawn) [Q.223]
≥ 50%: Pyrenophora teres | [1] | [2] | [3]

CCN(C)/C=N/c1cc(C)c(OC(C)c2cc(F)cc(F)c2)nc1C (stereo not drawn) [Q.184]
≥ 50%: Pyrenophora teres | [1] | [2] | [3]

CCN/C=N/c1cc(Br)c(OCCCC(C)C)nc1C [Q.004]
≥ 50%: Pyrenophora teres | [1] | [2] | [3]

CCN(C)/C=N/c1cc(Br)c(OCc2ccccc2Br)nc1C [Q.302]
≥ 50%: Pyrenophora teres | [1] | [2] | [3]

CCN(C)/C=N/c1cc(Br)c(OC2Cc3ccc(OCc4ccns4)cc3C2)nc1C (stereo not drawn) [Q.144]
≥ 50%: Pyrenophora teres | [1] | [2] | [3]

CCCCOc1nc(C)c(/N=C/N(C)CC)cc1Br [Q.390]
≥ 50%: Pyrenophora teres | [1] | [2] | [3]

C=CCCC(C)Oc1nc(C)c(/N=C/N(C)CC)cc1Br (stereo not drawn) [Q.220]
≥ 50%: Pyrenophora teres | [1] | [2] | [3]

CCN(C)/C=N/c1cc(Br)c(OCc2ccccc2SC)nc1C [Q.335]
≥ 50%: Pyrenophora teres | [1] | [2] | [3]

CCN(C)/C=N/c1cc(Br)c(OC(C)(C)c2cc(C)no2)nc1C [Q.076]
≥ 50%: Pyrenophora teres | [1] | [2] | [3]

CCN(C)/C=N/c1cc(Br)c(OC2CCC(=C(C)C)CC2)nc1C (stereo not drawn) [Q.122]
≥ 50%: Pyrenophora teres | [1] | [2] | [3]

CCN(C)/C=N/c1cc(Br)c(OCc2ccccc2C#N)nc1C [Q.304]
≥ 50%: Pyrenophora teres | [1] | [2] | [3]

CCN(C)/C=N/c1cc(Br)c(O[C@H]2C[C@@H]3ON=C(C)[C@@H]3C2)nc1C [Q.070]
≥ 50%: Pyrenophora teres | [1] | [2] | [3]

CCN(C)/C=N/c1cc(Br)c(OC(C)CCc2ccc(OC)cc2)nc1C (stereo not drawn) [Q.013]
≥ 50%: Pyrenophora teres | [1] | [2] | [3]

CCCC(C)Oc1nc(C)c(/N=C/N(C)CC)cc1Br (stereo not drawn) [Q.146]
≥ 50%: Pyrenophora teres | [1] | [2] | [3]

CCN(C)/C=N/c1cc(Br)c(OC2CCCC(Oc3ccccc3)C2)nc1C (stereo not drawn) [Q.241]
≥ 50%: Pyrenophora teres | [1] | [2] | [3]

CCN(C)/C=N/c1cc(Br)c(OC2CCc3c(cccc3OC)C2)nc1C (stereo not drawn) [Q.019]
≥ 50%: Pyrenophora teres | [1] | [2] | [3]

CCN(C)/C=N/c1cc(Br)c(OCc2cccc(Br)c2)nc1C [Q.101]
≥ 50%: Pyrenophora teres | [1] | [2] | [3]

CCN(C)/C=N/c1cc(Br)c(O[C@H]2CC[C@@H](c3ccccc3)CC2)nc1C [Q.269]
≥ 50%: Pyrenophora teres | [1] | [2] | [3]

CCN(C)/C=N/c1cc(Br)c(OCCC2CC2)nc1C [Q.222]
≥ 50%: Pyrenophora teres | [1] | [2] | [3]

CCCc1cccc(COc2nc(C)c(/N=C/N(C)CC)cc2Br)c1 [Q.346]
≥ 50%: Pyrenophora teres | [1] | [2] | [3]

C=C(C)CCCOc1nc(C)c(/N=C/N(C)CC)cc1Br [Q.120]
≥ 50%: Pyrenophora teres | [1] | [2] | [3]

CCN(C)/C=N/c1cc(Br)c(OCc2cccc(C(C)F)c2)nc1C (stereo not drawn) [Q.291]
≥ 50%: Pyrenophora teres | [1] | [2] | [3]

CCN(C)/C=N/c1cc(Br)c(OC2Cc3cc(Cl)c(OC)cc3C2)nc1C (stereo not drawn) [Q.378]
≥ 50%: Pyrenophora teres | [1] | [2] | [3]

Cc1ccccc1CCOc1ccc(/N=C/N(C)C(C)C)c(C)n1 [Q.352]
≥ 50%: Pyrenophora teres | [1] | [2] | [3]

CCN(C)/C=N/c1cc(Br)c(OCCCCc2ccc(Br)cc2)nc1C [Q.047]
≥ 50%: Pyrenophora teres | [1] | [2] | [3]

CCN(C)/C=N/c1cc(Br)c(OC2CCN(C(=O)C(C)C)CC2)nc1C [Q.162]
≥ 50%: Pyrenophora teres | [1] | [2] | [3]

CCN(C)/C=N/c1cc(C(F)F)c(O[C@H]2CC[C@@H](C(C)C)CC2)nc1C [Q.247]
≥ 50%: Pyrenophora teres | [1] | [2] | [3]

CCN(C)/C=N/c1cc(Br)c(OCCCC(C)F)nc1C (stereo not drawn) [Q.052]
≥ 50%: Pyrenophora teres | [1] | [2] | [3]

CCN(C)/C=N/c1cc(-c2ccccc2)c(OC2CC=CC2)nc1C [Q.262]
≥ 50%: Pyrenophora teres | [1] | [2] | [3]

CCN(C)/C=N/c1cc(Br)c(OCCCCc2ccccc2)nc1C [Q.148]
≥ 50%: Pyrenophora teres | [1] | [2] | [3]

C#Cc1cc(/N=C/N(C)CC)c(C)nc1O[C@H]1CC[C@@H](C(C)C)CC1 [Q.250]
≥ 50%: Pyrenophora teres | [1] | [2] | [3]

CCN(/C=N/c1cc(Br)c(OCCCC(C)C)nc1C)CC [Q.001]
≥ 50%: Pyrenophora teres | [1] | [2] | [3]

CCN(C)/C=N/c1cc(Br)c(OC2CCC(C(C)C)CC2)nc1C (stereo not drawn) [Q.334]
≥ 50%: Pyrenophora teres | [1] | [2] | [3]

CCN(C)/C=N/c1cc(Br)c(OC2Cc3cc(OC)c(OC)cc3C2)nc1C [Q.066]
≥ 50%: Pyrenophora teres | [1] | [2] | [3]

C=C(C)c1nc(OCc2ccccc2C)c(Br)cc1/N=C/N(C)CC [Q.400]
≥ 50%: Pyrenophora teres | [1] | [2] | [3]

CCc1ccccc1COc1nc(C)c(/N=C/N(C)CC)cc1Br [Q.285]
≥ 50%: Pyrenophora teres | [1] | [2] | [3]

CCN(C)/C=N/c1cc(Br)c(OCCC[Si](C)(C)C)nc1C [Q.015]
≥ 50%: Pyrenophora teres | [1] | [2] | [3]

CCc1cccc(C(C)Oc2nc(C)c(/N=C/N(C)CC)cc2Br)c1 (stereo not drawn) [Q.284]
≥ 50%: Pyrenophora teres | [1] | [2] | [3]

CCN(C)/C=N/c1cc(Br)c(OCc2ccc(Cl)cc2)nc1C [Q.097]
≥ 50%: Pyrenophora teres | [1] | [2] | [3]

From patent publication US9326513B2, “Fungicidal compositions” (Syngenta Participations AG, priority 2011, dated 2016)
